# Experiments:
# [1] = tested on: β2 subunit of Bd20S; assay: Fluorogenic kinetic assay of enriched Bd20S with PA28α and the β2 substrate Z-VLR-amc (50 mM HEPES pH 7.5, 1 mM DTT), no preincubation stated, rate of amc release read between 60 and 90 min, 8 µL volume.; assay type: biochemical; details: n = 3
# Experimental: (§1) To assess the enzyme activity, 8 ng of purified preparation was preincubated with 0 to 4000 nM recombinant human PA28α for 1 h at room temperature (RT). The enzyme activity was then assayed with 50 μM Suc-LLVY-amc in 50 mM HEPES, pH 7.5, and 1 mM DTT in the presence of 250 nM PA28α. To evaluate the substrate specificity for β5, β2, and β1 subunits, a set of available proteasome substrates was screened that included Suc-LLVY-amc, Z-VLR-amc and Z-LLE-amc, Ac-FnKL-amc, Ac-nPnD-amc, Ac-RYFD-amc, Ac-FRSR-amc, and Ac-GWYL-amc. Bd20S was initially activated with PA28α and the rate of release of 7-amino-4-methyl coumarin (amc) was quantified over time following addition of the substrates. For control, 6 μM marizomib (MZB, MedChemExpress) was used to ensure substrate cleavage by proteasome. For inhibition studies, IC50 values were measured using presteady-state enzyme kinetics. Five or 100 nL of inhibitor at concentrations ranging from 10 mM to 170 nM was dispensed using the ECHO 650 liquid handler (Beckman). Subsequently, 4 μL of 100 μM substrate was added, followed by 4 μL of Bd20S, and the release of amc was immediately measured. The IC50 values were calculated from the fluorescence units per second (RFU/s) recorded between 60 and 90 min after the reaction. […] Data were analyzed and plotted using GraphPad software.
# [2] = tested on: β1 subunit of Bd20S; assay: Fluorogenic kinetic assay of enriched Bd20S with PA28α and the β1 substrate Ac-nPnD-amc (50 mM HEPES pH 7.5, 1 mM DTT), no preincubation stated, rate of amc release read between 60 and 90 min, 8 µL volume.; assay type: biochemical; details: n = 3
# Experimental: as §1
# [3] = tested on: β5 subunit of Bd20S; assay: Fluorogenic kinetic assay of enriched Bd20S with PA28α and the β5 substrate Ac-FnKL-amc (50 mM HEPES pH 7.5, 1 mM DTT), no preincubation stated, rate of amc release read between 60 and 90 min, 8 µL volume.; assay type: biochemical; details: n = 3
# Experimental: as §1
# [4] = tested on: B. microti proteasome β5 subunit; assay: β5 proteasome activity in B. microti lysates (Suc-LLVY-amc); assay type: biochemical, Babesia microti; details: 133.33 nM inhibitor, relative to DMSO
# Experimental: (§2) B. divergens and B. microti protein lysates were prepared from infected red blood cells. Briefly, red blood cells were lysed with 0.15% saponin prepared in 1× Phosphate-Buffered Saline (PBS), pH 7.5, to release intact parasites. Parasites were washed with 1× PBS, pH 7.5 (PBS), by centrifugation and the pellets were stored at −80 °C in PBS plus 20% glycerol. To prepare protein lysates for enzymatic assays, parasites were thawed and transferred to 50 mM HEPES (pH 7.5), 10 μM E64, 100 μM AESBF, 1 μM Pepstatin A, and 1 mM DTT (all Sigma-Aldrich). Cells were ruptured by ultrasonication with an amplitude of 0.5 for 3 cycles of 15 s on ice. To prepare protein lysates for activity-based probing and proteasome purification, parasites were thawed and transferred to 20 mM Tris-HCl, pH 7.5, 1 mM DTT, 10 μM E64, and 5% glycerol. The lysate was sonicated on ice for 3 times and clarified by centrifugation at 17,000g for 10 min at 4 °C.
# To further improve the detection of the β5 subunit activity with the Suc-LLVY-amc substrate of the Babesia proteasome as previously published,[27] we aimed to further optimize assay conditions. However, to reduce the number of experimental animals in the study, assay conditions were optimized using protein lysates of B. divergens, which can be grown in vitro, instead of B. microti lysates, which need to be maintained in mice. […] Two assay buffers were evaluated. […] The release of the AMC fluorophore was monitored at 37 °C in a Synergy HTX multimode reader (BioTek) with excitation and emission wavelengths set to 340 and 460 nm, respectively.
# Proteasome activity in B. microti and B. divergens lysates was screened in the presence of carmaphycin B (CPB) and numerous analogs that were previously designed to target the P. falciparum 20S proteasome.[30] […] The release of the AMC fluorophore was monitored at 37 °C in a Synergy HTX multimode reader (BioTek Instruments, Winooski, VT) with excitation and emission wavelengths set to 340 and 460 nm, respectively. Activity was quantified as RFU per second and normalized to the DMSO control reactions.
# [5] = tested on: catalytic subunits of Bd20S; assay: Activity-based probe labeling (Me4BodipyFL-Ahx3Leu3VS) of Bd20S catalytic subunits; assay type: binding, Babesia divergens; details: lysates from CFZ- and CPB-treated cells, vs vehicle
# [6] = tested on: B. divergens proteasome β5 subunit; assay type: biochemical, Babesia divergens; details: Suc-LLVY-amc; for proteasome activity relative to activity with PA28α: Buffer B
# Experimental: as §2
# To further improve the detection of the β5 subunit activity with the Suc-LLVY-amc substrate of the Babesia proteasome as previously published,[27] we aimed to further optimize assay conditions. However, to reduce the number of experimental animals in the study, assay conditions were optimized using protein lysates of B. divergens, which can be grown in vitro, instead of B. microti lysates, which need to be maintained in mice. […] Assay conditions were optimized in 50 μL volumes in round-bottom 96-well plates. Two assay buffers were evaluated. Buffer A, as described previously,[27] consists of 20 mM HEPES, pH 8, 1 mM ATP, and 1 μM E64, while Buffer B consists of 50 mM HEPES, pH 7.5, 5 mM ATP, 10 μM E64, 100 μM AESBF, 1 μM Pepstatin A, and 1 mM DTT. Buffers A and B were tested with either 0.02% SDS or 6.67 ng of PA28 as activators of the proteasome activity. […] The release of the AMC fluorophore was monitored at 37 °C in a Synergy HTX multimode reader (BioTek) with excitation and emission wavelengths set to 340 and 460 nm, respectively.
# Proteasome activity in B. microti and B. divergens lysates was screened in the presence of carmaphycin B (CPB) and numerous analogs that were previously designed to target the P. falciparum 20S proteasome.[30] A pool of lysates was made for each species to ensure that equal amounts of the lysates were used in each inhibition reaction. Inhibitors were transferred to black 384-well plates with the ATS acoustic transfer system (ATS-100, Biosera). Lysates were incubated with inhibitors for 30 min at room temperature and activity was assayed in 30 μL reactions. Each reaction mixture contained 5 μL of Babesia lysate, 10 nL of the inhibitor (final concentration of 133.33 nM), and 25 μL of assay buffer with 25 μM substrate succinyl-Leu-Leu-Val-Tyr-7-amido-4-methylcoumarin (Suc-LLVY-amc). The release of the AMC fluorophore was monitored at 37 °C in a Synergy HTX multimode reader (BioTek Instruments, Winooski, VT) with excitation and emission wavelengths set to 340 and 460 nm, respectively. Activity was quantified as RFU per second and normalized to the DMSO control reactions.
# [7] = tested on: endogenous polyubiquitinated proteins in B. divergens; assay: Western blot of polyubiquitinated proteins in treated B. divergens cultures; assay type: cell-based, Babesia divergens; details: 200 nM, 24 h, anti-Ubiquitin K48 western blot, vs 0.1% DMSO
# Experimental: To assess the on-target effect of proteasome inhibition, protein lysates of B. divergens isolated from bovine erythrocyte cultures were evaluated for the accumulation of polyubiquitinated proteins. The B. divergens cultures underwent two 12 h treatments (totaling 24 h) with 200 nM of the inhibitor in culture medium. Parasites were released from RBCs and protein lysates were prepared as described above. The resulting samples were then centrifuged at 15,000g for 15 min at 4 °C and protein concentrations of the resulting supernatant were determined using Bradford assay.[29] Samples were prepared for SDS-PAGE in reducing Laemmli buffer supplemented with β-mercaptoethanol. Ten micrograms of protein was applied per lane and proteins were separated on gradient (4–15%) Criterion TGX Stain-Free Precast gels (BioRad) in Tris-Glycine-SDS running buffer (25 mM Tris, 192 mM glycine, and 0.1% (w/vol) SDS, pH 8.3) and visualized using TGX stain-free chemistry (BioRad). […] After washing (3 × 10 min) in PBS-T, signals were detected using Clarity Max Western ECL substrate (BioRad), visualized using a ChemiDoc MP imager, analyzed, and adjusted using the ImageLab freeware (BioRad).
# [8] = tested on: B. divergens; set-up: method as in PMID 30103207; details: bovine erythrocyte cultures, cited from earlier work
# [9] = tested on: Bd20S; assay: Fluorogenic substrate screen with Bd20S/PA28α with and without marizomib; assay type: biochemical, Babesia divergens; details: 6 μM MZB
# Experimental: as §1
compound,measurement,setting,value
"CCCCCC(=O)N[C@H](C(=O)N[C@@H](CCS(C)(=O)=O)C(=O)N[C@@H](CC(C)C)C(=O)[C@@]1(C)CO1)C(C)C [CPB, carmaphycin B]",IC50,[1],34.3 nM
same,IC50,[2],> 3000 nM
same,IC50,[3],27.9 nM
CC(C)C[C@H](NC(=O)[C@H](CCc1ccccc1)NC(=O)CN1CCOCC1)C(=O)N[C@@H](Cc1ccccc1)C(=O)N[C@@H](CC(C)C)C(=O)[C@@]1(C)CO1 [carfilzomib],inhibition of β5 activity in B. microti lysate (in words),[4],inhibited
same,labeling of catalytic subunits by activity-based probe,[5],significantly reduced
same,inhibition of β5 activity in B. divergens lysate (in words),"[6]; 133.33 nM inhibitor, relative to DMSO",completely inactivate
same,decrease of enzyme activity,"[6]; B. divergens lysate, with PA28α",> 95%
same,accumulation of endogenous polyubiquitinated proteins,[7],marked accumulation
same,concentration range significantly reducing B. divergens growth,[8],25 to 200 nM
same,EC50,[8]; read-out: EC50 B. divergens growth,29 nM
PA28γ: human proteasome activator subunit PA28γ (BioTechne #E-384),proteasome activity relative to activity with PA28α,[6]; B. divergens lysate,12.83%
CC[C@H](C)[C@H](NC(=O)[C@H]([C@@H](C)CC)N(C)C(C)=O)C(=O)N[C@H](C(=O)N[C@@H](CC(C)C)C(=O)[C@@]1(C)CO1)[C@@H](C)O [epoxomicin],concentration range significantly reducing B. divergens growth,[8],25 to 200 nM
PA28α: recombinant human proteasome activator PA28α (Uniprot Q06323),increase of enzyme activity by activator,"[6]; B. divergens lysate, compared with SDS",3 fold
C[C@@]12OC(=O)[C@]1([C@@H](O)[C@@H]1C=CCCC1)NC(=O)[C@@H]2CCCl [marizomib],activity with all fluorogenic substrates in presence of inhibitor,[9],eliminated
COc1ccc(C[C@H](NC(=O)[C@H](C)NC(=O)CN2CCOCC2)C(=O)N[C@@H](Cc2ccccc2)C(=O)C2(C)CO2)cc1 (stereo in doubt) [ONX-0914],concentration range significantly reducing B. divergens growth,[8],25 to 200 nM
PA28β: human proteasome activator subunit PA28β (BioTechne #E-382),proteasome activity relative to activity with PA28α,[6]; B. divergens lysate,14.41%
